Source: US10238623B2, “C14-hydroxyl esterified amino acid derivative of triptolide, and preparation method and use thereof” (HANGZHOU WEBEN PHARMACEUTICALS INC, priority 2015, dated 2019)
pIC50: −log10 of the molar value. Values joined by “and” are separate entries in the source; they are usually repeats but may differ in a detail not shown here. Identical values can stand only once.

Tests used:
[1] = test system: Sup-B15; assay: MTT growth inhibition, Sup-B15 cells, 72 h; format: cell-based, human
Protocol: (§1) 5000 well-grown leukemia cells or normal human blood cells were taken and seeded into wells of a 96-well cell culture plate. The medium was 1640 cell medium containing 10% fetal bovine serum. 14-D-Valine-TPL with different concentrations was added, and after being uniformly mixed, the plate was placed in a carbon dioxide (5% CO2) cell incubator, and incubated at 37° C. for 72 hours. The concentration of live cells was then determined using the MTT assay. In this experiment, the cell viability in the control group (without the compound treatment) was set to be 100%, and the cell viability (%) after the action of the compound the half maximal growth inhibitory concentration of leukemia cells at 72 hours (IC50 value at 72 hours) and the therapeutic window index were calculated. Therapeutic window index=IC50 value of normal blood cells/IC50 value of leukemia cells. […] A larger therapeutic window indicates a better selectivity of the compound for tumor cells.
(§2) 5000 well-grown leukemia cells were taken and seeded into wells of a 96-well cell culture plate. The medium was 1640 cell medium containing 10% fetal bovine serum. 14-D-Valine-TPL with different concentrations was added, and after being uniformly mixed, the plate was placed in a carbon dioxide (5% CO2) cell incubator, and incubated at 37° C. for 72 hours. The concentration of live cells was then determined using the MTT assay. In this experiment, the cell viability in the control group (without the compound treatment) was set to be 100%, and the cell viability (%) after the action of the compound and the half maximal growth inhibitory concentration of leukemia cells at 72 hours (IC50 value at 72 hours) were calculated.
as §2, with “well-grown lymphocytes” for “well-grown leukemia cells”

[2] = test system: normal human blood cells; assay: MTT assay, normal human blood cells, 72 h; format: cell-based; settings: Normal Blood Cell
Protocol: Leukemia cell strains: Sup-B15 (Ph+acute lymphoblastic leukemia), CEM (acute lymphoblastic leukemia, ALL), and Molt-4 (acute lymphoblastic leukemia, ALL). Normal blood cell samples: peripheral blood from healthy volunteers. • Primary reagent: 14-D-Valine-TPL of the invention. Primary instruments: cell incubator and microplate reader. (2) Experimental Method
as §1

[3] = test system: RNA polymerase II (Pol II); assay: Immunoblot of Pol II level in THP-1 cells, 48 h; format: cell-based, human; settings: 160 nM
Protocol: Well-grown leukemia cells were taken and seeded into wells of a 6-well cell culture plate, with a density of 1×10^6/ml. The medium was 1640 cell medium containing 10% fetal bovine serum. 14-D-Valine-TPL with different concentrations was added, and after being uniformly mixed, the plate was placed in a carbon dioxide (5% CO2) cell incubator, and incubated at 37° C. for 48 hours. Cellular proteins were then extracted, and the immunoblot technique was used to detect the expression levels of XPB and Pol II.

CC(C)[C@@H](N)C(=O)O[C@@H]1[C@@]2(C(C)C)O[C@H]2[C@@H]2O[C@]23[C@]12O[C@H]2C[C@H]1C2=C(CC[C@@]13C)C(=O)OC2 [14-D-Valine-TPL, 14-Dextro-Valine-Triptolide]
pIC50 ([1]; Homo sapiens, SUP-B15, 72 h): 7.68
Therapeutic window ([1]; IC50 of normal blood cells/IC50 of Sup-B15): 9.73
pIC50 ([2]; Homo sapiens, 72 h, Overall, MTT): 6.70
pIC50 ([2]; Homo sapiens, 72 h, individual healthy volunteers No1-No9, MTT): 6.69
pIC50 ([2]; individual healthy volunteers No1-No9, MTT): 6.70 and 6.69 and 6.67 and 6.72 and 6.73 and 6.68
level of Pol II (immunoblot) [3]: significantly inhibited
